Results on 5 compounds are retold here after PMC7419559 (Scientific Reports, 2020).

For assay [1], the target named is T1, G9a (Homo sapiens, UniProt Q96KQ7).
T1 construct: purchased Sigma-Aldrich
T1 sequence (Q96KQ7 1-1210): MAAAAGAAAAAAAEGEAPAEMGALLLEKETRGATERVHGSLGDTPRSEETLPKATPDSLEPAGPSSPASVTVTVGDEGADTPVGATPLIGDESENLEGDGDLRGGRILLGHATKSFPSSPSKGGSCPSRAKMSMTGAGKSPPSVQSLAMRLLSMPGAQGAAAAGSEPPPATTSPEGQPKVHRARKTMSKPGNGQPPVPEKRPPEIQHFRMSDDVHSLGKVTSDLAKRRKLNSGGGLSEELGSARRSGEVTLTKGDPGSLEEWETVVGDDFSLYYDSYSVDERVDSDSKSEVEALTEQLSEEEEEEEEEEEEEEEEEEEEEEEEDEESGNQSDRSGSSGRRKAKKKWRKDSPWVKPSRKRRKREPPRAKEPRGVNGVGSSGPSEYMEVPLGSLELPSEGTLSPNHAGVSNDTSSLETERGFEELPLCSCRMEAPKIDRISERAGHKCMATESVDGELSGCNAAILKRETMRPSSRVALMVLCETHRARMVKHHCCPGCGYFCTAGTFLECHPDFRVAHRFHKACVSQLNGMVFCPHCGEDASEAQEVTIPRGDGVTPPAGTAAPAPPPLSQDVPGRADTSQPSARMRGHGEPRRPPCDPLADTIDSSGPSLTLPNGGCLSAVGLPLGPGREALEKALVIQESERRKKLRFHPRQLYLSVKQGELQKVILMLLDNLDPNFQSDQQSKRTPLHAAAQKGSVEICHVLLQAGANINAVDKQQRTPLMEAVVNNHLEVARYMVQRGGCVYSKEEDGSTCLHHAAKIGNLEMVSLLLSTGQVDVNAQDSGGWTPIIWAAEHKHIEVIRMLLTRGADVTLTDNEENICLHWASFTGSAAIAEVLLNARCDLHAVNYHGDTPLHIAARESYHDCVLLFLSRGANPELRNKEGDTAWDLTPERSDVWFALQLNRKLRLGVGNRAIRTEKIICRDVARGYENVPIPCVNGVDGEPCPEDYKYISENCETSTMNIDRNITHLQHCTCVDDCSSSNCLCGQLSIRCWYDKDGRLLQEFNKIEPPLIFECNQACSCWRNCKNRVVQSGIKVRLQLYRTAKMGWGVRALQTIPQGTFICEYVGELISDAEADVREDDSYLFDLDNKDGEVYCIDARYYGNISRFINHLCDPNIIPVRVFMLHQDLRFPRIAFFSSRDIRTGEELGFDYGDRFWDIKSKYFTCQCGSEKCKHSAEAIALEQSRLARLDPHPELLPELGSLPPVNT
The assay can be described thus: AlphaLISA based G9a methyltransferase inhibition screening (H3K9 dimethylation). It counts as biochemical. How it is done:
Inhibition of G9a was examined in an AlphaLISA based format with protocols provided by PerkinElmer. In brief, compounds were incubated for 30 min on white 384-well microplates at the indicated concentration and with 5 nM G9a (Supplementary Information, Figure S1), 100 nM histone H3 (1–21) fragment and 15 µM SAM in assay buffer (50 mM Tris–HCl (pH = 9.0); 50 mM NaCl, 1 mM dithiothreitol, 0.01% Tween-20). Incubation was terminated by addition of anti-H3K9me2 acceptor beads in provided detection buffer. After incubating the mixture for 60 min, streptavidin-coated donor beads were added to the mix for additional 30 min. Luminescence was then measured using the AlphaLISA luminescence filter of an Infinite M1000pro multiplate reader (Tecan, Maennedorf, Switzerland) for 1,000 ms (integration time).
For experiments employing radiolabeled ligands, raw data that were measured as counts-per-minute [c.p.m.] were reduced by non-specific binding. For affinity measurements, such results were fitted to least-squares method “One site competition” of GraphPad Prism version 7.0 (La Jolla, CA, United States) and final values were calculated as means [95% confidence interval]. […] Data were stated as means ± s.d. […] Data were stated as means ± s.d. with the indicated number of replicates. For CRE-Luc assays, data were normalized to luminescence derived by forskolin containing samples (= 100%) and minimum luminescence measured in samples containing forskolin + N^α-methylhistamine (10 µM) (= 0%). Data from both experiments were globally fit to the “Gaddum/Schild EC50 shift” model of GraphPad Prism and were stated as means [95% confidence interval].
(In general: Alpha assays give light when donor and acceptor beads are brought close together.)

Assay [2] addresses T2, human isoform of histamine H3 receptor (hH3R) (Homo sapiens, UniProt Q9Y5N1).
T2 construct: expressed in transfected cells; host or cells: HEK-293T
The assay can be described thus: [3H]Nα-methylhistamine displacement at hH3R, membranes of transfected HEK-293T cells. It counts as binding. How it is done: NM_007232.3) was determined in radioligand displacement studies at membrane preparations of transfected HEK-293 T cells. […] The workflow to terminate incubation and measurement of bound radioligand was identical for both experimental set-ups. Briefly, samples were filtrated from microplates onto GF/B filters presoaked with 0.3% polyethyleneimine solution using a 96-well cell harvester. Filter mats were washed three times with water at 4 °C, dried for 60 min (54 °C), soaked with scintillation liquid (Betaplate Scint, PerkinElmer), sealed and subjected to scintillation counting. For experiments employing radiolabeled ligands, raw data that were measured as counts-per-minute [c.p.m.] were reduced by non-specific binding. For affinity measurements, such results were fitted to least-squares method “One site competition” of GraphPad Prism version 7.0 (La Jolla, CA, United States) and final values were calculated as means [95% confidence interval]. […] Data were stated as means ± s.d. […] Data were stated as means ± s.d. with the indicated number of replicates. […] Data from both experiments were globally fit to the “Gaddum/Schild EC50 shift” model of GraphPad Prism and were stated as means [95% confidence interval].

The target in assay [3] is T3, rat isoform of H3R (rH3R) (Rattus norvegicus, UniProt Q9QYN8).
T3 construct: expressed in transfected cells; host or cells: HEK-293T
As to the kind of experiment: CRE-Luc reporter gene Schild assay at rH3R in HEK-293T cells. The format is cell-based. As for the experimental part:
The mixture was incubated for 5 h under culture conditions. […] Lysed homogenate was transferred into white microplates. […] For experiments employing radiolabeled ligands, raw data that were measured as counts-per-minute [c.p.m.] were reduced by non-specific binding. […] Data were stated as means ± s.d. […] Data were stated as means ± s.d. with the indicated number of replicates.

Assay [4] addresses Spindlin1 (Homo sapiens, UniProt Q9Y657). The assay can be described thus: Spindlin1 inhibition, fluorescence polarization displacement assay. It counts as binding. The conditions noted are these: for Spindlin1 inhibition: fluorescence polarization-based screening. How it is done:
Spindlin1 inhibition was determined using the fluorescence polarization displacement assay described by Wagner et al.[37] For the IC50 values, 12 concentrations were measured in triplicates.
(Fluorescence polarisation rises when a labelled molecule tumbles more slowly, as on binding a larger partner.)

Each structure is given as a SMILES string. Read-outs that look alike come from different tables or passages of the source.

Sequence of Spindlin1 (Q9Y657 whole entry, species assumed): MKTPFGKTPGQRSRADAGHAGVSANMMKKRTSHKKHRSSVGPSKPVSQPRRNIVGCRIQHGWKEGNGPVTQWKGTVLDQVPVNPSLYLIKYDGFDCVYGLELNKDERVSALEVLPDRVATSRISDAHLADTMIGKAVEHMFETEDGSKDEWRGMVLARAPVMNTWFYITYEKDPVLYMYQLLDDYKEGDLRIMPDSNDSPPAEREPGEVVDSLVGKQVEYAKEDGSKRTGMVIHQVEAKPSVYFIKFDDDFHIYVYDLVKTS
T3 sequence (Q9QYN8 whole entry, canonical isoform): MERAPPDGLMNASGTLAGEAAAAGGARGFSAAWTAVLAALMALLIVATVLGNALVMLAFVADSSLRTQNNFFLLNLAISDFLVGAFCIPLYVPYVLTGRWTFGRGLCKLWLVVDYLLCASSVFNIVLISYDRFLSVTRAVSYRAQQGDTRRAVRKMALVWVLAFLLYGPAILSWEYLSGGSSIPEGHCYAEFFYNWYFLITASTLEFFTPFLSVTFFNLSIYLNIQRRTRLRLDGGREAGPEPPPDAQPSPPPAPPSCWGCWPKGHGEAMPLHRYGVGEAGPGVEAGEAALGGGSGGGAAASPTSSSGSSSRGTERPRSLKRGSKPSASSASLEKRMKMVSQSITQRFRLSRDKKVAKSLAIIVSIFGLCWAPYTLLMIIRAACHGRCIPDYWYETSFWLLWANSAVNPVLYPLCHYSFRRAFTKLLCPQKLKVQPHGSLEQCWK
T2 sequence (Q9Y5N1 whole entry, canonical isoform): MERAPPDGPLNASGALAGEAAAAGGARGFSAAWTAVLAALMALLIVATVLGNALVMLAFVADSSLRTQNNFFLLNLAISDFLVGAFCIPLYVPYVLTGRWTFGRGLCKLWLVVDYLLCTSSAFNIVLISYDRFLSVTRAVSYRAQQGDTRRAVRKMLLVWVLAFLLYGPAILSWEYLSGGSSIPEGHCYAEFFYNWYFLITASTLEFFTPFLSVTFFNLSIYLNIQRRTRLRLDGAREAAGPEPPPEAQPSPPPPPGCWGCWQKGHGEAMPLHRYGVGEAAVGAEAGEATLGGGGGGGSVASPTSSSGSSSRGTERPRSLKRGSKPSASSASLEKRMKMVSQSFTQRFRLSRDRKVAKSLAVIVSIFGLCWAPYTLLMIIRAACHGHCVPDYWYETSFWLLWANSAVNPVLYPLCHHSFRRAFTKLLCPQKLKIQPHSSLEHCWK

In assay [1], `COc1cc2c(cc1OCCCN1CCCC1)N=C(N)C21CCC1` [A-366] had an inhibition at 10 µM of 100 ± 0.04%. For the same compound, the Ki in assay [2] ([3H]Nα-methylhistamine 2 nM, 90 min, mean [95% CI], read-out: hH3R affinity Ki [CI95%]) stood at 17 nM. In assay [3], this compound gave a Kb of 15 nM. In addition, the Schild-plot slope in assay [3] (rH3R, mean ± 95% confidence interval, not significantly different from unity) is recorded as 0.79 ± 0.45.

On to `O=C(c1ccc(OCCCc2cnc[nH]2)cc1)C1CC1` [Ciproxifan], for which the Spindlin1 inhibition entry in assay [4] is recorded as “No inhibition”.

With `Clc1ccc(CCCOCCCN2CCCCC2)cc1` [Pitolisant], the Spindlin1 inhibition entry in assay [4] is “No inhibition”.

As for `O=C(c1ccc(OCCCN2CCCCC2)cc1)C1CC1` [UCL-2190], 10 µM produced 13.9 ± 9.3% inhibition in assay [1]. Further, in assay [4], the Spindlin1 inhibition entry is “No inhibition”.

With `COc1cc2c(NC3CCN(C(C)C)CC3)nc(N3CCC(F)(F)CC3)nc2cc1OCCCN1CCCC1` [UNC-0642], testing at 10 µM in assay [1] gave an inhibition of 99.9 ± 0.09%. In assay [4] (fluorescence polarization, 12 concentrations in triplicates), this compound yielded an IC50 of 2700 nM. Also, in assay [2], the Ki came out at 1.8 nM.

Broadly, the inhibition is the relative decrease from the control value, in per cent. One may read the Ki as the equilibrium dissociation constant of an inhibitor or competing ligand from its target. As a reminder, the IC50 is the point on the concentration scale where inhibition reaches its midpoint. A higher IC50 goes with weaker potency in that assay.
